# Earlier results, collected in patent US20120209125A1, “Singlet Oxygen Production and Dosimetry for Photodynamic Therapy” (PHYSICAL SCIENCES, INC., priority 2011, published 2012).
# Settings: isoflurane gas anesthesia; 'minimally metabolized'
smiles,measurement,value
FC(F)OC(Cl)C(F)(F)F (stereo not shown) [isoflurane],fraction metabolized by the liver,< 0.17%
